From patent US20250057828A1, “COMBINATION OF AN A2-ADRENOCEPTOR SUBTYPE C (ALPHA-2C) ANTAGONIST WITH A NOREPINEPHRINE REUPTAKE INHIBITOR FOR THE TREATMENT OF SLEEP APNEA” (priority 2021, published 2025)

System: pig model of obstructive sleep apnea (OSA)
Experiment: pig model of obstructive sleep apnea (OSA): collapsibility of the upper respiratory tract under negative pressure
Assay type: in vivo, German Landrace pigs
Conditions: 0.01 mg/kg intraduodenal
Text: The therapeutic potential of the combination of an α2-Adrenoceptor subtype C (alpha-2C) antagonists with a muscarinic receptor antagonist according to the present invention in sleep apnea can be assessed preclinically in a pig model of obstructive sleep apnea (OSA).
Using negative pressure, it is possible to induce collapse and thus obstruction of the upper respiratory tract in anaesthetized, spontaneously breathing pigs (Wirth K. J. et al., Sleep 36(5) (2013) pp. 699-708).
German Landrace pigs are used for the model. The pigs are anaesthetized and tracheotomized. Two tracheal cannulas are inserted into the trachea, one into the rostral part and the other into the caudal part of the trachea. Using a connection piece, the rostral cannula is connected to a tube to the negative pressure device and to the distal tracheal cannula. The distal tracheal cannula is additionally connected to a tube with an open end to atmosphere via a connection piece that served for free tracheal breathing, circumventing the upper airway. By appropriate opening and clamping of those tubes breathing can be switched from nasal breathing to breathing through the caudal tracheal cannula, circumventing the upper airway, and the (isolated) upper airway can be connected to the negative pressure device, causing airflow in the inspiratory direction.
At certain points in time, the collapsibility of the upper respiratory tract is tested by having the pig breathe via the caudal cannula and applying negative pressures of −50, −100 and −150 cm water head (cm H2O) to the upper respiratory tract. This causes the upper respiratory tract to collapse, which manifests itself in an interruption of the airflow and a pressure drop in the tube system. This test is conducted prior to the administration of the test substance and at certain intervals after the administration of the test substance. An appropriately effective test substance can prevent this collapse of the respiratory tract in the inspiratory phase.

## C[C@@H]1CCCN(C2CCN(c3ncc(C(=O)NCc4ncc(F)cc4F)s3)CC2)C1 [N-[(3,5-difluoropyridin-2-yl)methyl]-2-[(3R)-3-methyl[1,4′-bipiperidin]-1′-yl]-1,3-thiazole-5-carboxamide]
  inhibited upper airway collapsibility at all negative pressures of −50, −100 and −150 cm head (cm H2O) in all pigs: at no time point
Time point 120 min
  upper airway collapsibility at the negative pressures of −50 and −100 cm head (cm H2O): inhibited
Time point 150 min
  upper airway collapsibility at the negative pressure of −50 cm head (cm H2O): inhibited
0 min
  Percent pigs without collaps −50 cm H2O, %: 0%
  Percent pigs without collaps −100 cm H2O, %: 0%
  Percent pigs without collaps −150 cm H2O, %: 0%
30 min
  Percent pigs without collaps −50 cm H2O, %: 0%
  Percent pigs without collaps −100 cm H2O, %: 0%
  Percent pigs without collaps −150 cm H2O, %: 0%
60 min
  Percent pigs without collaps −50 cm H2O, %: 25%
  Percent pigs without collaps −100 cm H2O, %: 0%
  Percent pigs without collaps −150 cm H2O, %: 0%
90 min
  Percent pigs without collaps −50 cm H2O, %: 75%
  Percent pigs without collaps −100 cm H2O, %: 75%
  Percent pigs without collaps −150 cm H2O, %: 0%
120 min
  Percent pigs without collaps −50 cm H2O, %: 100%
  Percent pigs without collaps −100 cm H2O, %: 100%
  Percent pigs without collaps −150 cm H2O, %: 50%
150 min
  Percent pigs without collaps −50 cm H2O, %: 100%
  Percent pigs without collaps −100 cm H2O, %: 75%
  Percent pigs without collaps −150 cm H2O, %: 25%
180 min
  Percent pigs without collaps −50 cm H2O, %: 75%
  Percent pigs without collaps −100 cm H2O, %: 50%
  Percent pigs without collaps −150 cm H2O, %: 0%
240 min
  Percent pigs without collaps −50 cm H2O, %: 50%
  Percent pigs without collaps −100 cm H2O, %: 25%
  Percent pigs without collaps −150 cm H2O, %: 0%
270 min
  Percent pigs without collaps −50 cm H2O, %: 25%
  Percent pigs without collaps −100 cm H2O, %: 25%
  Percent pigs without collaps −150 cm H2O, %: 0%
300 min
  Percent pigs without collaps −50 cm H2O, %: 25%
  Percent pigs without collaps −100 cm H2O, %: 0%
  Percent pigs without collaps −150 cm H2O, %: 0%
